Two substances from patent publication US12128062B2, “Methods for targeting pain directed at metabolic pathways” (UNIVERSITY OF MARYLAND, BALTIMORE, priority 2018, dated 2024) can be followed below.

In data set [1] the test system is L4-6 DRG cultures (sensory neurons). Put plainly: Extracellular flux analysis (Seahorse XFp): glutamine oxidation-dependent oxygen consumption rate of dissociated L4-6 DRG cultures from IT-treated mice. The class given is cell-based, mouse. The conditions noted are these: glutamine 2 mM; for increase in oxygen consumption rate (OCR) in response to glutamine addition: DRG cultures from mice given 1 μg IT one day earlier, baseline OCR subtracted; for time over which the glutamine-induced OCR increase lasts: DRG cultures from mice given 1 μg IT. The procedure: (§1) In this experiment, mice were injected with 1 μg of teRNA or teRNAmm intrathecally (IT). The next day L4-6 DRGs were dissected and acutely dissociated for extracellular flux analysis. One day post teRNA and teRNA mm injection L4-6 DRGs were dissected and proteins were extracted for western blot analysis. In an independent experiment, mice received plantar incision and were allowed to recover. On day 10 baseline measurements were performed, which was followed by intraplantar injection of PGE2. Allodynia testing was preformed form on days 14, 15, 21 and 24. Intrathecal teRNA or teRNAmm (1 μg) were injected on day 14 following the allodynia testing.
In this experiment, L4-6 DRGs were dissected form naïve, teRNAmm and teRNA treated mice. Lumbar 4-6 DRGs were placed in Hank's Buffered Salt Solution (HBSS, Thermo Fisher, Cat #14170112) on ice. The ganglia were dissociated enzymatically with collagenase A (1 mg/ml, 25 min, Millipore Sigma, Cat #10103578001) and collagenase D (1 mg/ml, Millipore Sigma, Cat #11088858001) with papain (30 U/ml, Millipore Sigma, Cat #10108014001) for 20 min at 37° C. To eliminate debris and large diameter sensory neurons, 70 μm (Thermo Fisher, Cat #087712) cell strainers were used. The dissociated cells were resuspended in DMEM/F12 (Thermo Fisher, Cat #10565042) containing 1× pen-strep (Thermo Fisher, Cat #15070063) and 10% fetal bovine serum (Millipore Sigma, Cat #F2442). The cells were plated in Seahorse XFp Cell Culture Miniplate (Agilent, Cat #103025-100). These cultures were incubated overnight at 37° C. in a humidified 95% air/5% CO2 incubator. The metabolic changes were characterized by analyzing the glycolysis and oxidative phosphorylation rates of sensory neurons using extracellular flux analyzer, Seahorse XFp (Agilent). Dissociated L4-6 primary afferents were incubated in DMEM (Millipore Sigma, Cat #D5030) without glutamine, pyruvate or glucose, Baseline oxygen consumption rate (OCR) measurements were followed by the addition of glutamine (2 mM). The baseline OCR values were subtracted from each of the other values to determine glutamine oxidation-dependent OCR.

The nature of data set [2]: Bortezomib-induced CIPN (neuropathic pain) mouse model, tactile thresholds / allodynia. The class given is in vivo. The procedure: teRNA was administered to mice which have developed neuropathic pain due to bortezomib treatment. In this experiment, mice were treated with intraperitoneal 0.2 mg/kg of bortezomib (Millipore Sigma, Cat #5.04314.0001) for 5 consecutive days for a total dose of 1 mg/kg. The vehicle group received intraperitoneal saline for 5 consecutive days. The mice that receive bortezomib develop profound allodynia. The efficacy of teRNA for treating and preventing the development of bortezomib-induced neuropathic pain was explored.
Treatment with bortezomib (bort) from day 0-4 (black arrow) led to the development of severe neuropathic pain. Baseline thresholds were measured on day 0 and allodynia was tested on days 14, 15, 17 and 21.
In a second experiment, mice were treated with either saline or bortezomib on days 0-4 (intraperitoneal 0.2 mg/kg of bortezomib for 5 consecutive days for a total dose of 1 mg/kg). On day 7 mice that received bortezomib developed profound neuropathic pain.
To determine if teRNA can prevent the development of chemotherapy-induced neuropathic pain, mice were co-treated with IT teRNA (days 0, 2 and 4) and intraperitoneal (IP) bortezomib (days 0-4) (intraperitoneal 0.2 mg/kg of bortezomib for 5 consecutive days for a total dose of 1 mg/kg).

Data set [3] is described as follows: Hyperalgesic priming model (plantar incision then intraplantar PGE2), tactile thresholds by von Frey filaments. The class given is in vivo, mouse.
Description: The hyperalgesic priming model was utilized in the experiments because it is well-characterized and used to study the neuroplasticity underlying persistent pain sensitization and the transition of acute pain to chronic pain [13-17]. As shown at the top FIG. 2, the model is comprised of three phases. 1) The acute phase, also called the induction phase, causes transient tactile hypersensitivity in response to various pro-nociceptive compounds and resolves within a week. The hindpaw plantar incision model was used for the acute phase, which comprises incision of the skin, the underlying fascia, and the plantar flexor digitorum brevis muscle as the initial injury. This model was selected since it lacks injury to major peripheral nerves and typically resolves within a week. 2) The primed phase follows the acute phase. The animals are not hypersensitive and this phase can last for at least 3 weeks.
In this experiment, mice received plantar incision and their tactile thresholds were determined using von Frey filaments. Mice were placed in small cages with a mesh floor individually. Calibrated monofilaments of differing forces are applied perpendicularly to the hind paw. Withdraws, licking or flinching of the paw in response to the filament is considered a positive response. The results are provided in FIG. 2A where “Threshold (grams)” on the y-axis represents the amount of force required for the mice to withdraw the hindpaw before (baseline, BL) and after the incision. Reduced withdrawal threshold indicates increased pain.
In this experiment, the same mice used in the acute phase were allowed to recover and on Day 10 received intraplantar PGE2. The results are provided in FIG. 2B where “Threshold (grams)” on the y-axis represents the amount of force required for the mice to withdraw their hindpaw which is an indication of tactile hypersensitivity and pain. […] 1, 2, 3 and 4 days post-PGE2 injection, *** P<0.001. […] PGE2 injection caused profound allodynia in mice that had plantar incision.
as §1, with “testing. […]” for “testing.”

For data set [4], the system named is ASCT2. Nature of the data set: Western blot of ASCT2 protein in L4-6 DRGs after intrathecal injection. The conditions noted are these: IT 1 μg, DRGs dissected 24 hrs post injection; versus teRNAmm control. The format is in vivo, mouse. As for the experimental part: Western blot (WB) analyses were performed to examine changes in metabolic genes that are known to regulate pyruvate and glutamine oxidation. In these experiments, lumbar 4-6 dorsal root ganglia (L4-6 DRGs) which innervate the hindpaw were dissected on Day 1, 9 and 14 post-plantar incisions (as described above). Protein was extracted from the L4-6 DRGs in lysis buffer (50 mM Tris HCl, 1% Triton X-100, 150 mM NaCl, and 1 mM EDTA at pH 7.4) containing protease and phosphatase inhibitor mixtures with an ultrasonicator on ice, and cleared of cellular debris by centrifugation at 14,000 relative centrifugal force for 15 min at 4° C. Fifteen micrograms of protein per well were loaded and separated by standard 7.5% or 10% SDS-PAGE. Proteins were transferred to Immobilon-P membranes (Millipore Sigma, Cat #IPVH00010) and then blocked with 5% dry milk for 3 h at room temperature. The blots were incubated with primary antibody overnight at 4° C. and detected the following day with donkey anti-rabbit or goat anti-mouse antibody conjugated to horseradish peroxidase (1:10,000, Jackson Immunoresearch, Cat #711-036-152, Cat #115-036-062). Signal was detected by enhanced chemiluminescence on films. For assessment of phospho-proteins, membranes were stripped and reprobed for total-protein of interest for normalization. Densitometric analyses were done using UN-SCAN-IT 7.1 software (Silk Scientific Corp.). […]
(In western blotting, separated proteins are transferred to a membrane and probed.)

Setting [5] is: IT 1 μg on days 7, 9 and 11, bortezomib IP 0.2 mg/kg days 0-4.
Where [6] appears, read: single IT 1 μg on day 14, bortezomib IP 0.2 mg/kg days 0-4.
The mark [7] stands for this setting: single IT 1 μg, 14 days post plantar incision (4 days post PGE2).

Turning to “5′-CAUACUACGCCGUAGC-3′ (2'-O-methyl modifications, further chemistry not given here) [teRNAmm, reference compound]”, in data set [1], the “increase in oxygen consumption rate (OCR) in response to glutamine addition” value stood at 10% and the “time over which the glutamine-induced OCR increase lasts” value is no more than 30 min. For the same substance, in data set [2] (setting [5]), the “effect on existing bortezomib-induced neuropathic pain, repeated treatment” value is reported as “did not impact the bortezomib-induced neuropathic pain”. For the same substance, the “effect on bortezomib-induced neuropathic pain / tactile thresholds, single treatment” value in data set [2] (setting [6]) is given as “did not impact the tactile thresholds”. Also, the “effect on tactile hypersensitivity / tactile thresholds, incision group” value in data set [3] (setting [7]) was “did not display any change in their tactile thresholds”.
Take “5′-CAUAGAUCCGGGAUGC-3′ (2'-O-methyl modifications, further chemistry not given here) [teRNA]”: in data set [1], the “increase in oxygen consumption rate (OCR) in response to glutamine addition” value is given as “around 20%” and the “time over which the glutamine-induced OCR increase lasts” value is “at least 30 mins”. Further, in data set [2] (setting [5]), the “duration of pain relief, repeated treatment” value is on record as “at least 2 weeks” and the “effect on existing bortezomib-induced neuropathic pain, repeated treatment” value was “prolonged pain relief”. Moreover, in data set [2] (IT on days 0, 2 and 4 with IP bortezomib 0.2 mg/kg days 0-4), the “prevention of development of bortezomib-induced neuropathic pain, co-treatment” value is “prevented the development of bortezomib-induced neuropathic pain”. Also, in data set [2] (IT on days 7, 9 and 11, bortezomib days 0-4), the “time post the initiation of bortezomib treatment up to which existing neuropathic pain was alleviated” value is “at least 21 days”. In addition, in data set [2] (setting [6]), the “duration of alleviation of bortezomib-induced neuropathic pain, single treatment” value is recorded as “several days” and the “effect on bortezomib-induced neuropathic pain / tactile thresholds, single treatment” value is “reversed the bortezomib-induced neuropathic pain”. In data set [3] (single IT 1 μg on day 14), the “effect on tactile thresholds of the control group (no incision)” value is “did not affect the tactile thresholds”. Moreover, in data set [3] (setting [7]), the “duration of alleviation of tactile hypersensitivity, incision group” value is “at least 7 days” and the “effect on tactile hypersensitivity / tactile thresholds, incision group” value was “alleviated tactile hypersensitivity”. For the same substance, the “ASCT2 protein in L4-6 DRGs” value in data set [4] is “robust increase”.
